pIC50: −log10 of the molar value.
Target: Angiotensin-converting enzyme (Bos taurus) (UniProt P12820)
Experiment: Inhibitory activity against Angiotensin I converting enzyme (ACE) from bovine kidney

Chain of Angiotensin-converting enzyme (Bos taurus) (P12820 whole entry, looked up): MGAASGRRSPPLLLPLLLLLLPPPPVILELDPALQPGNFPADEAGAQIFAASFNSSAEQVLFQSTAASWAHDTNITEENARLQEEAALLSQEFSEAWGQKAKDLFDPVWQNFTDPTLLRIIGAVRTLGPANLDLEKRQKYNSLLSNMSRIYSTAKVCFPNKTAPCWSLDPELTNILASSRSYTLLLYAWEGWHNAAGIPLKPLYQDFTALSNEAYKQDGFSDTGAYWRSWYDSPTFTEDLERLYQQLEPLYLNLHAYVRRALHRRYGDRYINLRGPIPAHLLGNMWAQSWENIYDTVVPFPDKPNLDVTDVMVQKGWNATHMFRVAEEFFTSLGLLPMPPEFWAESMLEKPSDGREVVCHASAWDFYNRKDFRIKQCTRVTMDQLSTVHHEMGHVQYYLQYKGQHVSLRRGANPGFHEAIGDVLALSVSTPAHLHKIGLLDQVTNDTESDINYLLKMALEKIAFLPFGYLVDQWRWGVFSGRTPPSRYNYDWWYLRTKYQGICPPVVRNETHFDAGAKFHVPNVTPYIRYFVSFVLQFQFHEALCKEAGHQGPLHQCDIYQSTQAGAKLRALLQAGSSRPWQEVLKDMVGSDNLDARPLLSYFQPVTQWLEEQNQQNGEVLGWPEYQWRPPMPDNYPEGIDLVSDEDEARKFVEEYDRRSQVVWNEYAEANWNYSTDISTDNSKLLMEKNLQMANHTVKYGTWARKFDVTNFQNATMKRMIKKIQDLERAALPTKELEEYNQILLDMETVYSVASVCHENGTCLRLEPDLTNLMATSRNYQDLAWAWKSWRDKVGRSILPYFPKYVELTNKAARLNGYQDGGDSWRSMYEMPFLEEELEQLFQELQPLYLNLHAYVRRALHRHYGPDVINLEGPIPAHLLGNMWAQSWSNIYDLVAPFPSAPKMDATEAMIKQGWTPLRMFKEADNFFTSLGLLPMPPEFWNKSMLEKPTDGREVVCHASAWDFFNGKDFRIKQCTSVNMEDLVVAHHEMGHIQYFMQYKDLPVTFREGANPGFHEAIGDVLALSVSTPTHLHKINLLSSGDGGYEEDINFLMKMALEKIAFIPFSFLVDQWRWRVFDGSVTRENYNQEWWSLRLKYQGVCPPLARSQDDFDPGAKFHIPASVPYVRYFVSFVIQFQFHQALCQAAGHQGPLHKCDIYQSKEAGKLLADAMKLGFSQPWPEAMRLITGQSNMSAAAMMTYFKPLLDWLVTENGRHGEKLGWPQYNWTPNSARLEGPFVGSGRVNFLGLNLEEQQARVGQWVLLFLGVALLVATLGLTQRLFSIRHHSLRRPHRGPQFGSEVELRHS

pIC50 | SMILES
9.00 | CC1CCCC(C(=O)O)N1C(=O)CCS (stereo not drawn) [1-(3-Mercapto-propionyl)-6-methyl-piperidine-2-carboxylic acid]
3.30 | CC(=O)SCC(C)C(=O)NCc1ccccc1 (stereo not drawn) [Thioacetic acid S-(2-benzylcarbamoyl-propyl) ester]
6.52 | CC(=O)SCC(C)C(=O)Nc1ccccc1 (stereo not drawn) [Thioacetic acid S-(2-phenylcarbamoyl-propyl) ester]
